Laboratory results reported in the supplement of paper PMC10307832.

Experiments:
Assay in all cases: relative viability (nuclei count vs DMSO), 5 days (fraction); higher = more cells survive
[1] = test system: NCI-H322M
How it was run: (§1)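 Dosing by pin tool came one day after lung cancer cell lines were seeded in 1536-well plates, using either one drug or a fixed anchor-drug dose plus five library-drug doses (not always all listed) in √10 steps. After 5 days, nuclei were counted on 4× images. Relative viability is treated-well nuclei count divided by vehicle-well nuclei count, and values are medians of duplicate plates.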

[2] = test system: 201T
How it was run: as §1

[3] = test system: NCI-H2126
How it was run: as §1

[4] = test system: COR-L 105
How it was run: as §1

[5] = test system: NCI-H650
How it was run: as §1

[6] = test system: NCI-H2405
How it was run: as §1

[7] = test system: NCI-H2347
How it was run: as §1

[8] = test system: NCI-H2087
How it was run: as §1

[9] = test system: NCI-H520
How it was run: as §1

[10] = test system: ChaGo-K-1
How it was run: as §1

[11] = test system: HCC-78
How it was run: as §1

[12] = test system: NCI-H522
How it was run: as §1

COc1cc(N2CCC(C(N)=O)CC2)ccc1Nc1nc(N)c(Cl)c(Nc2ccccc2S(=O)(=O)C(C)C)n1 [HG-5-88-01] + Cc1cc(Nc2cc(N3CCN(C)CC3)nc(Sc3ccc(NC(=O)C4CC4)cc3)n2)n[nH]1 [Tozasertib] (partner 0.1 µM)
relative viability ([1]; first compound 0.04 µM): 0.456 | relative viability ([1]; first compound 0.1265 µM): 0.443 | relative viability ([1]; first compound 0.4 µM): 0.387 | relative viability ([1]; first compound 4 µM): 0.38 | relative viability ([2]; first compound 0.04 µM): 0.963 | relative viability ([2]; first compound 0.1265 µM): 0.903 | relative viability ([2]; first compound 0.4 µM): 0.939 | relative viability ([2]; first compound 1.265 µM): 0.871 | relative viability ([2]; first compound 4 µM): 0.911 | relative viability ([3]; first compound 0.04 µM): 0.937 | relative viability ([3]; first compound 0.1265 µM): 0.941 | relative viability ([3]; first compound 0.4 µM): 0.849 | relative viability ([3]; first compound 1.265 µM): 0.467 | relative viability ([3]; first compound 4 µM): 0.487 | relative viability ([4]; first compound 0.04 µM): 0.377 | relative viability ([4]; first compound 0.1265 µM): 0.379 | relative viability ([4]; first compound 0.4 µM): 0.317 | relative viability ([4]; first compound 1.265 µM): 0.312 | relative viability ([4]; first compound 4 µM): 0.42 | relative viability ([5]; first compound 0.04 µM): 0.765 | relative viability ([5]; first compound 0.1265 µM): 0.72 | relative viability ([5]; first compound 0.4 µM): 0.594 | relative viability ([5]; first compound 1.265 µM): 0.461 | relative viability ([5]; first compound 4 µM): 0.523 | relative viability ([6]; first compound 0.04 µM): 0.765 | relative viability ([6]; first compound 0.1265 µM): 0.704 | relative viability ([6]; first compound 0.4 µM): 0.659 | relative viability ([6]; first compound 1.265 µM): 0.395 | relative viability ([6]; first compound 4 µM): 0.416 | relative viability ([7]; first compound 0.04 µM): 0.638 | relative viability ([7]; first compound 0.1265 µM): 0.563 | relative viability ([7]; first compound 0.4 µM): 0.743 | relative viability ([7]; first compound 1.265 µM): 0.392 | relative viability ([7]; first compound 4 µM): 0.398 | relative viability ([8]; first compound 0.04 µM): 0.266 | relative viability ([8]; first compound 0.1265 µM): 0.203 | relative viability ([8]; first compound 0.4 µM): 0.262 | relative viability ([8]; first compound 1.265 µM): 0.22 | relative viability ([8]; first compound 4 µM): 0.14 | relative viability ([9]; first compound 0.04 µM): 0.457 | relative viability ([9]; first compound 0.1265 µM): 0.433 | relative viability ([9]; first compound 0.4 µM): 0.435 | relative viability ([9]; first compound 1.265 µM): 0.414 | relative viability ([9]; first compound 4 µM): 0.452 | relative viability ([10]; first compound 0.04 µM): 0.213 | relative viability ([10]; first compound 0.1265 µM): 0.25 | relative viability ([10]; first compound 0.4 µM): 0.155 | relative viability ([10]; first compound 1.265 µM): 0.229 | relative viability ([10]; first compound 4 µM): 0.211 | relative viability ([11]; first compound 0.04 µM): 0.428 | relative viability ([11]; first compound 0.1265 µM): 0.315 | relative viability ([11]; first compound 0.4 µM): 0.424 | relative viability ([11]; first compound 1.265 µM): 0.231 | relative viability ([11]; first compound 4 µM): 0.279 | relative viability ([12]; first compound 0.04 µM): 0.567 | relative viability ([12]; first compound 0.1265 µM): 0.454 | relative viability ([12]; first compound 0.4 µM): 0.584 | relative viability ([12]; first compound 1.265 µM): 0.57 | relative viability ([12]; first compound 4 µM): 0.454
